Measurements from patent publication US9133207B2, “Tetrandrine derivatives with substituted 5-carbon, preparation method and use thereof” (Hangzhou Bensheng Pharmaceutical Co., Ltd., priority 2011, dated 2015).
Converted amounts (≈) assume the structure as drawn.

Assays:
[1] = tested on: H9 (acute lymphoblastic leukemia, ALL); experiment: Leukemia cell growth inhibition, MTT, 72 h (Example 5); type: cell-based, human; details: Homo sapiens; 72 h, MTT
Summary of the method: (§1)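 Seed 6000 leukemia cells per well in 1640 medium containing 10% FBS. Add test compounds at different concentrations, mix, incubate 72 hours at 37° C in 5% CO2. Determine viable cells by MTT.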

[2] = tested on: Jurkat (acute lymphoblastic leukemia, ALL); experiment: as above; type: cell-based, human; details: Homo sapiens, Jurkat; 72 h, MTT
Summary of the method: as §1

[3] = tested on: K562/adr (drug-resistant, chronic myeloid leukemia, CML); experiment: as above; type: cell-based, human; details: Homo sapiens, K562/Adr; 72 h, MTT
Summary of the method: as §1

[4] = tested on: Kasumi-1 (acute myeloid leukemia M2 type, AML-M2); experiment: as above; type: cell-based, human; details: Homo sapiens, Kasumi 1
Summary of the method: as §1

[5] = tested on: NB4 (acute promyelocytic leukemia, AML); experiment: as above; type: cell-based, human; details: Homo sapiens; 72 h, MTT
Summary of the method: as §1

[6] = tested on: RPMI8226 (multiple myeloma); experiment: Multiple myeloma cell growth inhibition, MTT, 72 h (Example 6); type: cell-based, human; details: Homo sapiens, RPMI-8226; 72 h, MTT, RPMI8226
Summary of the method: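 Viability was read by MTT after 72 h of compound exposure at 37 °C, 5% CO2. Each well held 6000 RPMI8226 cells in 1640 medium containing 10% fetal bovine serum, with derivatives added at various concentrations.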

[7] = tested on: CaES-17 (esophageal cancer cell); experiment: Solid tumor cell growth inhibition, MTT, 72 h (Example 7); type: cell-based, human; details: Homo sapiens, CaEs17; 72 h, MTT, CAES-17
Summary of the method: (§2)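 Each line is plated at 4000 cells per well in high-glucose DMEM supplemented with 10% FBS. After 24 h settling, derivatives at several concentrations are mixed in and cultured 72 h; MTT then gives viable cells, with untreated wells set to 100%.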

[8] = tested on: Hep-2 (laryngeal carcinoma); experiment: as above; type: cell-based, human; details: Homo sapiens; 72 h, MTT, Hep 2
Summary of the method: as §2

[9] = tested on: MG63 (osteosarcoma); experiment: as above; type: cell-based, human; details: Homo sapiens; 72 h, MTT, MG-63
Summary of the method: as §2

[10] = tested on: PANC-1 (pancreatic cancer); experiment: as above; type: cell-based, human; details: Homo sapiens; 72 h, MTT, PANC-1
Summary of the method: as §2

[11] = tested on: PC-3 (prostate cancer); experiment: as above; type: cell-based, human; details: Homo sapiens; 72 h, MTT, PC-3
Summary of the method: as §2

[12] = tested on: A549 (human lung cancer); experiment: as above; type: cell-based; details: Homo sapiens; 72 h, MTT, A549
Summary of the method: as §2

[13] = tested on: Becap37 (human breast cancer cell); experiment: as above; type: cell-based; details: Homo sapiens; 72 h, MTT, Becap-37
Summary of the method: as §2

[14] = tested on: CNE (nasopharyngeal carcinoma cell); experiment: as above; type: cell-based; details: Homo sapiens
Summary of the method: as §2

[15] = tested on: Hela (human cervical cancer cell); experiment: as above; type: cell-based; details: Homo sapiens; 72 h, MTT, Hela
Summary of the method: as §2

[16] = tested on: Huh7 (human liver cancer cell); experiment: as above; type: cell-based; details: Homo sapiens; 72 h, MTT, Huh-7
Summary of the method: as §2

[17] = tested on: MGC 803 (human gastric cancer cell); experiment: as above; type: cell-based; details: Homo sapiens
Summary of the method: as §2

[18] = tested on: RKO (human colon adenocarcinoma cell); experiment: as above; type: cell-based; details: Homo sapiens; 72 h, MTT, RKO
Summary of the method: as §2

[19] = tested on: SK-OV-3 (ovarian cancer cell); experiment: as above; type: cell-based; details: Homo sapiens
Summary of the method: as §2

[20] = tested on: U87 MG (malignant glioma cell); experiment: as above; type: cell-based; details: Homo sapiens, U-87 MG
Summary of the method: as §2

Structure (SMILES)	IC50 [1] [µg/mL]	IC90 [1] [µg/mL]	IC50 [2] [µg/mL]	IC90 [2] [µg/mL]	IC50 [3] [µg/mL]	IC90 [3] [µg/mL]	IC50 [4] [µg/mL]	IC90 [4] [µg/mL]	IC50 [5] [µg/mL]	IC90 [5] [µg/mL]	IC50 [6] [µg/mL]	IC90 [6] [µg/mL]	IC50 [7] [µg/mL]	IC90 [7] [µg/mL]	IC50 [8] [µg/mL]	IC90 [8] [µg/mL]	IC50 [9] [µg/mL]	IC90 [9] [µg/mL]	IC50 [10] [µg/mL]	IC90 [10] [µg/mL]	other results
COc1ccc2cc1Oc1ccc(cc1)C[C@H]1c3cc(c(OC)cc3CCN1C)Oc1c(OC)c(OC)c(CN3CCCC(O)C3)c3c1[C@H](C2)N(C)CC3 (stereo partly shown) [BS-TE-321]	0.91 (≈ 1.24 µM)	1.78 (≈ 2.42 µM)	0.94 (≈ 1.28 µM)	5.75 (≈ 7.81 µM)	0.49 (≈ 0.666 µM)	3.02 (≈ 4.1 µM)	0.48 (≈ 0.652 µM)	2.55 (≈ 3.47 µM)	0.8 (≈ 1.09 µM)	1.9 (≈ 2.58 µM)	0.08 (≈ 0.109 µM)	3.63 (≈ 4.93 µM)	2.25 (≈ 3.06 µM)	19.1 (≈ 25.9 µM)	3.51 (≈ 4.77 µM)	9.8 (≈ 13.3 µM)	1.1 (≈ 1.49 µM)	3.2 (≈ 4.35 µM)	2.6 (≈ 3.53 µM)	9.14 (≈ 12.4 µM)	IC50 [11]: 2.01 µg/mL (≈ 2.73 µM); IC90 [11]: 3.84 µg/mL (≈ 5.22 µM); IC50 [12]: 4.4 µg/mL (≈ 5.98 µM); IC90 [12]: 16 µg/mL (≈ 21.7 µM); IC50 [13]: 1.4 µg/mL (≈ 1.9 µM); IC90 [13]: 4.5 µg/mL (≈ 6.11 µM); IC50 [14]: 2.8 µg/mL (≈ 3.8 µM); IC90 [14]: 6.6 µg/mL (≈ 8.97 µM); IC50 [15]: 1.48 µg/mL (≈ 2.01 µM); IC90 [15]: 4.31 µg/mL (≈ 5.86 µM); IC50 [16]: 0.81 µg/mL (≈ 1.1 µM); IC90 [16]: 1.24 µg/mL (≈ 1.68 µM); IC50 [17]: 1.78 µg/mL (≈ 2.42 µM); IC90 [17]: 6.73 µg/mL (≈ 9.14 µM); IC50 [18]: 0.69 µg/mL (≈ 0.938 µM); IC90 [18]: 1.71 µg/mL (≈ 2.32 µM); IC50 [19]: 3.5 µg/mL (≈ 4.76 µM); IC90 [19]: > 16 µg/mL; IC50 [20]: 0.57 µg/mL (≈ 0.775 µM); IC90 [20]: 2.51 µg/mL (≈ 3.41 µM)
COc1ccc2cc1Oc1ccc(cc1)C[C@H]1c3cc(c(OC)cc3CCN1C)Oc1c(OC)c(OC)c(CN3CCC(C#N)CC3)c3c1[C@H](C2)N(C)CC3 [BS-TE-323]	0.95 (≈ 1.28 µM)	2.13 (≈ 2.86 µM)	1.28 (≈ 1.72 µM)	9 (≈ 12.1 µM)	0.21 (≈ 0.282 µM)	2.16 (≈ 2.9 µM)	1.23 (≈ 1.65 µM)	4.6 (≈ 6.18 µM)	1.5 (≈ 2.01 µM)	4.5 (≈ 6.04 µM)	0.12 (≈ 0.161 µM)	3.88 (≈ 5.21 µM)	3.6 (≈ 4.83 µM)	23 (≈ 30.9 µM)	2.49 (≈ 3.34 µM)	5.59 (≈ 7.5 µM)	2.6 (≈ 3.49 µM)	5.5 (≈ 7.38 µM)	2.46 (≈ 3.3 µM)	7.1 (≈ 9.53 µM)	IC50 [11]: 1.88 µg/mL (≈ 2.52 µM); IC90 [11]: 3.83 µg/mL (≈ 5.14 µM); IC50 [12]: 6.2 µg/mL (≈ 8.32 µM); IC90 [12]: 16 µg/mL (≈ 21.5 µM); IC50 [13]: 3.2 µg/mL (≈ 4.3 µM); IC90 [13]: 8 µg/mL (≈ 10.7 µM); IC50 [14]: 4.8 µg/mL (≈ 6.44 µM); IC90 [14]: 10.4 µg/mL (≈ 14 µM); IC50 [15]: 1.2 µg/mL (≈ 1.61 µM); IC90 [15]: 3.89 µg/mL (≈ 5.22 µM); IC50 [16]: 1.33 µg/mL (≈ 1.79 µM); IC90 [16]: 3.88 µg/mL (≈ 5.21 µM); IC50 [17]: 3.04 µg/mL (≈ 4.08 µM); IC90 [17]: 8 µg/mL (≈ 10.7 µM); IC50 [18]: 1.07 µg/mL (≈ 1.44 µM); IC90 [18]: 2.6 µg/mL (≈ 3.49 µM); IC50 [19]: 8 µg/mL (≈ 10.7 µM); IC90 [19]: > 16 µg/mL; IC50 [20]: 0.98 µg/mL (≈ 1.32 µM); IC90 [20]: 4.02 µg/mL (≈ 5.4 µM)
CNCc1c2c3c(c(OC)c1OC)Oc1cc4c(cc1OC)CCN(C)[C@H]4Cc1ccc(cc1)Oc1cc(ccc1OC)C[C@@H]3N(C)CC2 [BS-TE-326]	0.88 (≈ 1.32 µM)	1.35 (≈ 2.03 µM)	1.41 (≈ 2.12 µM)	3.98 (≈ 5.98 µM)	0.89 (≈ 1.34 µM)	2.14 (≈ 3.21 µM)	0.96 (≈ 1.44 µM)	2.37 (≈ 3.56 µM)	1.2 (≈ 1.8 µM)	1.8 (≈ 2.7 µM)	0.27 (≈ 0.406 µM)	0.64 (≈ 0.961 µM)	2.5 (≈ 3.75 µM)	6.18 (≈ 9.28 µM)	3.62 (≈ 5.44 µM)	6.57 (≈ 9.87 µM)	1.4 (≈ 2.1 µM)	1.9 (≈ 2.85 µM)	1.63 (≈ 2.45 µM)	5.16 (≈ 7.75 µM)	IC50 [11]: 3.6 µg/mL (≈ 5.41 µM); IC90 [11]: 5.8 µg/mL (≈ 8.71 µM); IC50 [12]: 1.8 µg/mL (≈ 2.7 µM); IC90 [12]: 4.9 µg/mL (≈ 7.36 µM); IC50 [13]: 1.3 µg/mL (≈ 1.95 µM); IC90 [13]: 2 µg/mL (≈ 3 µM); IC50 [14]: 3.2 µg/mL (≈ 4.81 µM); IC90 [14]: 4.95 µg/mL (≈ 7.43 µM); IC50 [15]: 1.9 µg/mL (≈ 2.85 µM); IC90 [15]: 3.01 µg/mL (≈ 4.52 µM); IC50 [16]: 1.15 µg/mL (≈ 1.73 µM); IC90 [16]: 1.76 µg/mL (≈ 2.64 µM); IC50 [17]: 1.46 µg/mL (≈ 2.19 µM); IC90 [17]: 5.38 µg/mL (≈ 8.08 µM); IC50 [18]: 0.87 µg/mL (≈ 1.31 µM); IC90 [18]: 2.22 µg/mL (≈ 3.33 µM); IC50 [19]: 1.91 µg/mL (≈ 2.87 µM); IC90 [19]: 5.21 µg/mL (≈ 7.82 µM); IC50 [20]: 0.75 µg/mL (≈ 1.13 µM); IC90 [20]: 2.4 µg/mL (≈ 3.6 µM)
COc1ccc2cc1Oc1ccc(cc1)C[C@H]1c3cc(c(OC)cc3CCN1C)Oc1c(OC)c(OC)c(CN3CCSCC3)c3c1[C@H](C2)N(C)CC3 [BS-TE-328]	1.54 (≈ 2.09 µM)	3.15 (≈ 4.27 µM)	2.09 (≈ 2.83 µM)	8 (≈ 10.8 µM)	1.46 (≈ 1.98 µM)	5.12 (≈ 6.94 µM)	0.84 (≈ 1.14 µM)	3.76 (≈ 5.1 µM)	1.8 (≈ 2.44 µM)	4.4 (≈ 5.96 µM)	0.15 (≈ 0.203 µM)	0.96 (≈ 1.3 µM)	3.13 (≈ 4.24 µM)	12.2 (≈ 16.5 µM)	9.63 (≈ 13 µM)	15.9 (≈ 21.5 µM)	2.1 (≈ 2.85 µM)	3.9 (≈ 5.28 µM)	2.99 (≈ 4.05 µM)	7.15 (≈ 9.69 µM)	IC50 [11]: 3.07 µg/mL (≈ 4.16 µM); IC90 [11]: 4.98 µg/mL (≈ 6.75 µM); IC50 [12]: 3.7 µg/mL (≈ 5.01 µM); IC90 [12]: 9.9 µg/mL (≈ 13.4 µM); IC50 [13]: 2 µg/mL (≈ 2.71 µM); IC90 [13]: 4 µg/mL (≈ 5.42 µM); IC50 [14]: 6.02 µg/mL (≈ 8.16 µM); IC90 [14]: > 16 µg/mL; IC50 [15]: 2.49 µg/mL (≈ 3.37 µM); IC90 [15]: 4.91 µg/mL (≈ 6.65 µM); IC50 [16]: 1.52 µg/mL (≈ 2.06 µM); IC90 [16]: 3.7 µg/mL (≈ 5.01 µM); IC50 [17]: 1.68 µg/mL (≈ 2.28 µM); IC90 [17]: 4 µg/mL (≈ 5.42 µM); IC50 [18]: 1.76 µg/mL (≈ 2.38 µM); IC90 [18]: 3 µg/mL (≈ 4.07 µM); IC50 [19]: 6.8 µg/mL (≈ 9.21 µM); IC90 [19]: > 16 µg/mL; IC50 [20]: 1.44 µg/mL (≈ 1.95 µM); IC90 [20]: 5.39 µg/mL (≈ 7.3 µM)
